Reference: ChEMBL document CHEMBL2146453, “Synthesis of novel ursolic acid heterocyclic derivatives with improved abilities of antiproliferation and induction of p53, p21waf1 and NOXA in pancreatic cancer cells” (Bioorg Med Chem, 2012)
The source made the active and inactive calls. The calls are words filed in the database; no cut-off is given here.

Assays:
ASPC1 [1] = test: Induction of apoptosis in human AsPC1 cells assessed as sub-G1 phase cells at 4 uM after 24 hrs by flow cytometric analysis (reference value: 1%); format: functional
HepG2 = test: Cytotoxicity against human HepG2 cells after 72 hrs by MTT assay; format: functional, cell-based; details: HepG2, 72 h
ASPC1 [2] = test: Induction of apoptosis in human AsPC1 cells assessed as sub-G1 phase cells at 8 uM after 24 hrs by flow cytometric analysis (reference value: 1%); format: functional
ASPC1 [3] = test: Cell cycle arrest in human AsPC1 cells assessed as G1 phase cells at 6 uM after 24 hrs by flow cytometric analysis (reference value: 25.4%); format: functional
ASPC1 [4] = test: Induction of apoptosis in human AsPC1 cells assessed as sub-G1 phase cells at 6 uM after 24 hrs by flow cytometric analysis (reference value: 1%); format: functional
ASPC1 [5] = test: Cell cycle arrest in human AsPC1 cells assessed as G1 phase cells at 10 uM after 24 hrs by flow cytometric analysis (reference value: 25.4%); format: functional
ASPC1 [6] = test: Cell cycle arrest in human AsPC1 cells assessed as S phase cells at 6 uM after 24 hrs by flow cytometric analysis (reference value: 12.6%); format: functional
ASPC1 [7] = test: Induction of apoptosis in human AsPC1 cells assessed as sub-G1 phase cells at 10 uM after 24 hrs by flow cytometric analysis (reference value: 1%); format: functional
ASPC1 [8] = test: Cytotoxicity against human AsPC1 cells after 72 hrs by MTT assay; format: functional, cell-based; details: ASPC1, 72 h
MIA PaCa-2 = test: Cytotoxicity against human MIAPaCa2 cells after 72 hrs by MTT assay; format: functional, cell-based; details: MIA PaCa-2, 72 h
A549 = test: Cytotoxicity against human A549 cells after 72 hrs by MTT assay; format: functional, cell-based; details: A549, 72 h
ASPC1 [9] = test: Upregulation of p21 in human AsPC1 cells at 6 to 10 uM after 24 hrs by Western blot analysis; format: functional, cell-based
ASPC1 [10] = test: Cell cycle arrest in human AsPC1 cells assessed as G2/M phase cells at 4 uM after 24 hrs by flow cytometric analysis (reference value: 20.7%); format: functional
ASPC1 [11] = test: Ratio of ursolic acid IC50 to compound IC50 for human AsPC1 cells; format: functional
ASPC1 [12] = test: Downregulation of Mcl1 in human AsPC1 cells at 2 to 10 uM after 24 hrs by Western blot analysis; format: functional, cell-based
ASPC1 [13] = test: Cell cycle arrest in human AsPC1 cells assessed as S phase cells at 4 uM after 24 hrs by flow cytometric analysis (reference value: 12.6%); format: functional
ASPC1 [14] = test: Cell cycle arrest in human AsPC1 cells assessed as G2/M phase cells at 8 uM after 24 hrs by flow cytometric analysis (reference value: 20.7%); format: functional
ASPC1 [15] = test: Cell cycle arrest in human AsPC1 cells assessed as G2/M phase cells at 10 uM after 24 hrs by flow cytometric analysis (reference value: 20.7%); format: functional
ASPC1 [16] = test: Upregulation of p53 in human AsPC1 cells at 2 to 10 uM after 24 hrs by Western blot analysis; format: functional, cell-based
PC-3 = test: Cytotoxicity against human PC3 cells after 72 hrs by MTT assay; format: functional, cell-based; details: PC-3, 72 h
ASPC1 [17] = test: Cell cycle arrest in human AsPC1 cells assessed as G2/M phase cells at 2 uM after 24 hrs by flow cytometric analysis (reference value: 20.7%); format: functional
ASPC1 [18] = test: Cell cycle arrest in human AsPC1 cells assessed as S phase cells at 2 uM after 24 hrs by flow cytometric analysis (reference value: 12.6%); format: functional
ASPC1 [19] = test: Cell cycle arrest in human AsPC1 cells assessed as G1 phase cells at 2 uM after 24 hrs by flow cytometric analysis (reference value: 25.4%); format: functional
ASPC1 [20] = test: Cell cycle arrest in human AsPC1 cells assessed as S phase cells at 10 uM after 24 hrs by flow cytometric analysis (reference value: 12.6%); format: functional
ASPC1 [21] = test: Cell cycle arrest in human AsPC1 cells assessed as G1 phase cells at 4 uM after 24 hrs by flow cytometric analysis (reference value: 25.4%); format: functional
PANC-1 = test: Cytotoxicity against human PANC1 cells after 72 hrs by MTT assay; format: functional, cell-based; details: PANC-1, 72 h
MCF7 = test: Cytotoxicity against human MCF7 cells after 72 hrs by MTT assay; format: functional, cell-based; details: MCF7, 72 h
ASPC1 [22] = test: Cell cycle arrest in human AsPC1 cells assessed as G2/M phase cells at 6 uM after 24 hrs by flow cytometric analysis (reference value: 20.7%); format: functional
ASPC1 [23] = test: Cell cycle arrest in human AsPC1 cells assessed as G1 phase cells at 8 uM after 24 hrs by flow cytometric analysis (reference value: 25.4%); format: functional
ASPC1 [24] = test: Upregulation of NOXA in human AsPC1 cells at 6 to 10 uM after 24 hrs by Western blot analysis; format: functional, cell-based
ASPC1 [25] = test: Induction of apoptosis in human AsPC1 cells assessed as sub-G1 phase cells at 2 uM after 24 hrs by flow cytometric analysis (reference value: 1%); format: functional
ASPC1 [26] = test: Cell cycle arrest in human AsPC1 cells assessed as S phase cells at 8 uM after 24 hrs by flow cytometric analysis (reference value: 12.6%); format: functional

COC(=O)[C@]12CC[C@@H](C)[C@H](C)[C@H]1C1=CC[C@@H]3[C@@]4(C)C/C(=C/n5cnnc5)C(=O)C(C)(C)[C@@H]4CC[C@@]3(C)[C@]1(C)CC2
Activity (ASPC1 [1]): 0.5% | IC50 (HepG2): 3.2 µM | Activity (ASPC1 [2]): 3.4% | Activity (ASPC1 [3]): 36.6% | Activity (ASPC1 [4]): 1.2% | Activity (ASPC1 [5]): 27.3% | Activity (ASPC1 [6]): 9.5% | Activity (ASPC1 [7]): 13.2% | IC50 (ASPC1 [8]): 1.9 µM | IC50 (MIA PaCa-2): 4 µM | IC50 (A549): 4.9 µM | Activity (ASPC1 [9]): Active | Activity (ASPC1 [10]): 14.7% | Ratio IC50 (ASPC1 [11]): 7 | Activity (ASPC1 [12]): inactive | Activity (ASPC1 [13]): 9.6% | Activity (ASPC1 [14]): 23.4% | Activity (ASPC1 [15]): 28.8% | Activity (ASPC1 [16]): Active | IC50 (PC-3): 3 µM | Activity (ASPC1 [17]): 14.9% | Activity (ASPC1 [18]): 9.1% | Activity (ASPC1 [19]): 23.9% | Activity (ASPC1 [20]): 10.5% | Activity (ASPC1 [21]): 27.9% | IC50 (PANC-1): 3.5 µM | IC50 (MCF7): 2.3 µM | Activity (ASPC1 [22]): 24.1% | Activity (ASPC1 [23]): 31.9% | Activity (ASPC1 [24]): Active | Activity (ASPC1 [25]): 0.7% | Activity (ASPC1 [26]): 10.1%
